The source of these data is patent publication US7238525B2, “Strategy for leukemia therapy” (The Regents of the University of California, priority 2000, dated 2007).

Data set [1] deals with untransfected cells. Briefly: TUNEL assay, untransfected cells. It is filed as cell-based. The note with it: STI571 alone, BCR-Abl-NES experiment. The source says:
It is known that activation of the nuclear Abl tyrosine kinase by DNA damage can contribute to the induction of apoptosis (Gong et al., 1999; Wang, 2000). Similarly, when translocated into the nucleus, Bcr-Abl kinase can activate apoptosis. […]. […] However, removal of the inhibitor while maintaining the Bcr-Abl in the nucleus strongly stimulated apoptosis. […]. With this protocol, between 70–80% of the Bcr-Abl expressing cells were positive for TUNEL staining, whereas the apoptosis rate remained at the 10% level with untransfected cells (Table 2). By expressing Bcr-Abl-KD and treating cells with LMB alone, it was confirmed that an active nuclear Bcr-Abl kinase was required to induce apoptosis.
Cell Death Assays. […] […].

The subject of data set [2] is K562 cells. Briefly: Cell survival assay, K562 cells. The data set is classed as cell-based. To be noted: 72 hours treatment, then drug removal. On the procedure:
[…]. […] […].
After 48 h (TonB, TonB210) or 72 h (K562), live cells were counted with the Trypan blue exclusion assay. Cells were then washed extensively with PBS and placed in growth media. Trypan blue cell counts were repeated every 48 h and followed by feeding with fresh media. Cell counts were stopped when the number of viable cells was higher than the number of cells originally plated.

The subject of data set [3] is human leukemic cells. To be noted: in vivo STI571 treatment; cited from earlier work.
The conditions of data set [4]: human, in vivo; cited from earlier work.
Data set [5] deals with K562 cells. Briefly: Tyrosine-phosphorylated proteins in total cell lysates, K562. The note with it: at the end of drug treatments.
Method: The tyrosine-phosphorylated proteins in total cell lysates were examined at the end of drug treatments and then before their precipitous death.
Transfection and Immunoblotting. […] Immunoblots were performed using 1 μg/ml 4G10 monoclonal antibody against phosphotyrosine (Upstate Biotechnology, Waltham, Mass.), or 1 μg/ml monoclonal antibody against Abl (8E9) (Pharmingen, San Diego, Calif.).
Data set [6] has as its system Bcr-Abl-KD. Briefly: Nuclear localization by immunofluorescence in transfected Abl−/− fibroblasts (Bcr-Abl-KD). The data set is classed as cell-based. The note with it: LMB alone.
In data set [7] the test system is TonB cells. The note with it: 48 hours treatment, with IL-3.
For data set [8] the following is noted: human, in vivo; cited from earlier work. The source holds these as a separate data set.

In turn, `Cc1ccc(NC(=O)c2ccc(CN3CCN(C)CC3)cc2)cc1Nc1nccc(-c2cccnc2)n1` [STI571, 4-[(4-methyl-piperazinyl)methyl]-N-[4-methyl-3-[[4-(3-pyrodnyl)-2-pyrimidinyl]amin]phenyl]benzamide methanesul-fonate] displayed a TUNEL-positive untransfected cells in data set [1] of 3%. Besides, in data set [2], the viable cell numbers entry is recorded as “initial death”. For the same compound, in data set [3], the tumors eradicated was 70–100%. Further, the maximum tolerated dose entry in data set [4] is “No maximum tolerated dose has been identified”. Also, the “overall levels of tyrosine-phosphorylated proteins” value in data set [5] was “decreased”.

As to `CCC(=C/[C@H](C)C/C=C/C(C)=C/[C@@H](C)C(=O)[C@@H](C)[C@H](O)[C@@H](C)C/C(C)=C/C(=O)O)/C=C/[C@@H]1OC(=O)C=C[C@@H]1C` [LMB, leptomycin B], the “nuclear fraction of Bcr-Abl-KD” value in data set [6] is 25–35%. For the same compound, the viable cell numbers entry in data set [2] is reported as “initial decline in cell number”; in data set [7] it was “caused a reduction in cell numbers”. Moreover, the “toxicity observed in a phase I clinical trial” value in data set [8] is given as “neuronal toxicity”.
